In patent publication US11752166B2, “Combination therapy for treatment of HCV” (COCRYSTAL PHARMA, INC., priority 2018, dated 2023):

System: HCV GT1b (Con1, HCV-1b) replicon
Test: HCV GT1b replicon 2-drug combination assay (firefly luciferase, MacSynergy II)
Type: cell-based, Hepatitis C virus
Parameters: Synergy volume / Antagonism volume: unit not given here
Conditions: for Antagonism volume / Synergy volume: 3 days, 0.125-8x EC50
Experimental: Materials: Cells—The HCV GT1b (Con1, HCV-1b) replicon cells were generated and provided by WuXi AppTec. The HCV-1b replicon cells are Huh7 cells stably transfected with the HCV GT1b replicon containing the HCV subgenome, resistance selection gene NEO and reporter gene firefly luciferase.
Software—HCV replicon data was analyzed using MacSynergy™ II software.
Methods: This study was to assess combination effects of the Compound A with other HCV antivirals on HCV replicon replication in the HCV GT1b replicon assay.
The 2-drug combination experiment was designed using a checkboard cross pattern of 7 drug concentrations of each agent, including each agent alone, in triplicate, plated with the Automated Liquid Workstation (Labcyte, Echo555). The concentrations of the test compounds were 0.125, 0.25, 0.5, 1, 2, 4, 8× EC50 values. The EC50 values of the test compounds were determined in a separate HCV GT1b replicon assay. The regimens of the compound combinations are listed in Table 1—where each regimen includes Compound A as the first compound. The final concentration of DMSO in the cell culture medium was 0.5%.
The HCV-1b cells were seeded at a density of 8,000 cells per well in 96-well plates and cultured in DMEM containing 10% FBS at 5% CO2 and 37° C. The replicon cells were treated with the compounds for 3 days.
The antiviral activity of the compounds was determined by monitoring activity of the replicon reporter firefly luciferase using Bright Glo in accordance with the protocol provided by the supplier. The combination indices were calculated using the MacSynergy™ II software. A positive combination index value indicates synergism, and a negative combination index value indicates antagonism.

[1] = 2nd inhibitor (NS5A inhibitor) in combination with Compound A
[2] = 2nd inhibitor (NS3 protease inhibitor table, incl. ribavirin) in combination with Compound A
[3] = 2nd inhibitor (NS5B nucleoside inhibitor) in combination with Compound A

| Compound | Combination regimen effect [1] | Antagonism volume [1] | Synergy volume [1] | Combination regimen effect [2] | Antagonism volume [2] | Synergy volume [2] | further results |
| --- | --- | --- | --- | --- | --- | --- | --- |
| COC(=O)N[C@H](C(=O)N1C[C@H](SC)C[C@@H]1c1ncc(-c2ccc(-c3ccc(-c4[nH]c([C@@H]5CCCN5C(=O)[C@@H](NC(=O)OC)c5ccccc5)nc4Cl)cc3)cc2)[nH]1)c1ccccc1 [Compound C] | Additive | 0 | 3.57 | – | – | – | – |
| COC(=O)N[C@H](C(=O)N1CCC[C@H]1c1nc(-c2ccc(-c3ccc(-c4c[nH]c([C@@H]5CCCN5C(=O)[C@@H](NC(=O)OC)C(C)C)n4)cc3)cc2)c[nH]1)C(C)C [Daclatasvir] | – | −3.05 | 33.47 | – | – | – | – |
| C=C[C@@H]1C[C@]1(NC(=O)[C@@H]1C[C@@H](Oc2ncc(OC)c3ccc(Cl)cc23)CN1C(=O)[C@@H](NC(=O)OC(C)(C)C)C(C)(C)C)C(=O)NS(=O)(=O)C1CC1 [Asunaprevir] | – | – | – | Additive | −1.32 | 4.9 | – |
| COC(=O)N[C@H](C(=O)N1CC2(CC2)C[C@H]1c1nc(-c2ccc3c(c2)C(F)(F)c2cc(-c4ccc5[nH]c([C@@H]6[C@H]7CC[C@H](C7)N6C(=O)[C@@H](NC(=O)OC)C(C)C)nc5c4)ccc2-3)c[nH]1)C(C)C [Ledipasvir] | Minor synergy | −1.08 | 38.55 | – | – | – | – |
| NC(=O)c1ncn([C@@H]2O[C@H](CO)[C@@H](O)[C@H]2O)n1 [Ribavirin] | – | – | – | Additive | −9.76 | 0.24 | – |
| COC(=O)N[C@H](C(=O)N1CCC[C@H]1c1nc2cc([C@H]3CC[C@H](c4cc5nc([C@@H]6CCCN6C(=O)[C@@H](NC(=O)OC)[C@@H](C)OC)[nH]c5cc4F)N3c3cc(F)c(N4CCC(c5ccc(F)cc5)CC4)c(F)c3)c(F)cc2[nH]1)[C@@H](C)OC [Pibrentasvir] | Additive | −24.59 | 5.7 | – | – | – | – |
| COc1ccc2c(O[C@@H]3C[C@H]4C(=O)N[C@]5(C(=O)NS(=O)(=O)C6CC6)C[C@H]5/C=C\CCCCN(C)C(=O)[C@@H]4C3)cc(-c3nc(C(C)C)cs3)nc2c1C [Simprevir, Simeprevir] | – | – | – | Additive | 0.00 | 13.39 | – |
| COC[C@H]1C[C@@H](c2nc(-c3ccc4c(c3)COc3cc5c(ccc6nc([C@@H]7CC[C@H](C)N7C(=O)[C@@H](NC(=O)OC)C(C)C)[nH]c65)cc3-4)c[nH]2)N(C(=O)[C@H](NC(=O)OC)c2ccccc2)C1 [Velpatasvir] | Additive | −7.92 | 0.76 | – | – | – | – |
| CC(C)(C)[C@@H]1NC(=O)O[C@@H]2CCC[C@H]2OC/C=C/C(F)(F)c2nc3ccccc3nc2O[C@@H]2C[C@@H](C(=O)N[C@]3(C(=O)NS(=O)(=O)C4(C)CC4)C[C@H]3C(F)F)N(C2)C1=O [Glecaprevir] | – | – | – | Minor synergism | 0.00 | 47.37 | – |
| CC(C)OC(=O)[C@@H](C)NP(=O)(OC[C@@H]1O[C@H](n2ccc(NO)nc2=O)[C@@](C)(O)[C@H]1O)Oc1ccccc1 (stereo partly drawn) [Compound B] | – | – | – | – | – | – | Combination regimen effect [3]: Additive; Antagonism volume [3]: 0.00; Synergy volume [3]: 3.30 |
| CNC(=O)c1c(-c2ccc(F)cc2)oc2cc(N(CCCCCOCc3ccc(C(=O)O)cc3)S(C)(=O)=O)c(C3CC3)cc12 [Compound A] | – | – | – | – | – | – | Combination effect (with HCV NS5B nucleoside inhibitors, NS5A inhibitors, NS3 protease inhibitors, NS3 helicase inhibitors, and ribavirin): either additive or synergistic effect |
| CC(C)OC(=O)[C@H](C)N[P@](=O)(OC[C@H]1O[C@@H](n2ccc(=O)[nH]c2=O)[C@](C)(F)[C@@H]1O)Oc1ccccc1 [Sofosbuvir] | – | – | – | – | – | – | Combination regimen effect [3]: Additive; Antagonism volume [3]: 0.00; Synergy volume [3]: 9.47 |
